ChEMBL document CHEMBL1152391, “Development of a selective and potent radioactive ligand for histamine H(3) receptors: A compound potentially useful for receptor occupancy studies” (Bioorg Med Chem Lett, 2009)
The source made the active and inactive calls. No cut-off for these calls is given here.

Columns and labels:
Histamine H3 receptor [1] = molecular target: T1, Histamine H3 receptor (Mus musculus, UniProt P58406); assay: biochemical
Histamine H3 receptor [2] = molecular target: T1, Histamine H3 receptor; assay: Inverse agonist activity at mouse histamine H3 receptor overexpressed in HEK293 cells by [35S]GTPgammaS binding assay; assay type: functional, cell-based
[3] = molecular target: Histamine H3 receptor (Mus musculus) (UniProt P58406); assay: Inverse agonist activity at mouse histamine H3 receptor overexpressed in HEK293 cells by [35S]GTPgammaS binding assay relative to basal level; assay type: functional, cell-based; details: concentration not given here
[4] = Plasma concentration in Sprague-Dawley rat at 10 mg/kg, po after 2 hrs; assay type: ADME, organism-based; parameters: dose 10 mg/kg, route oral
Brain [5] = assay: Ex vivo binding affinity to histamine H3 receptor in wild type mouse coronal brain sections at 3 nM after 30 mins by receptor occupancy assay; assay type: functional, tissue-based; details: tested as the 3H-labelled form
[6] = Drug level in Sprague-Dawley rat cerebrospinal fluid at 10 mg/kg, po after 2 hrs; assay type: ADME, organism-based; parameters: dose 10 mg/kg, route oral; details: read-out: Drug uptake
Histamine H3 receptor [7] = molecular target: Histamine H3 receptor (Rattus norvegicus, UniProt Q9QYN8); assay: Binding affinity to rat histamine H3 receptor by competitive binding assay
Histamine H1 receptor = Histamine H1 receptor (Homo sapiens, UniProt P35367); assay: Inhibition of histamine H1 receptor
Brain [8] = assay: Drug level in Sprague-Dawley rat brain at 10 mg/kg, po after 2 hrs; assay type: ADME, organism-based; parameters: dose 10 mg/kg, route oral; details: in vivo
Histamine H4 receptor = Histamine H4 receptor (Homo sapiens, UniProt Q9H3N8); assay: Inhibition of histamine H4 receptor
Histamine H2 receptor = Histamine H2 receptor (Homo sapiens, UniProt P25021); assay: Inhibition of histamine H2 receptor
[9] = Lipophilicity, log d at pH 7.4; assay type: physicochemical; details: buffer
Histamine H3 receptor [10] = molecular target: T1, Histamine H3 receptor; assay: Binding affinity to histamine H3 receptor in wild type mouse brain membrane; assay type: cell membranes
Histamine H3 receptor [11] = molecular target: T1, Histamine H3 receptor; assay: Binding affinity to mouse histamine H3 receptor overexpressed in HEK293 cells; assay type: cell-based

T1 sequence (P58406 whole entry): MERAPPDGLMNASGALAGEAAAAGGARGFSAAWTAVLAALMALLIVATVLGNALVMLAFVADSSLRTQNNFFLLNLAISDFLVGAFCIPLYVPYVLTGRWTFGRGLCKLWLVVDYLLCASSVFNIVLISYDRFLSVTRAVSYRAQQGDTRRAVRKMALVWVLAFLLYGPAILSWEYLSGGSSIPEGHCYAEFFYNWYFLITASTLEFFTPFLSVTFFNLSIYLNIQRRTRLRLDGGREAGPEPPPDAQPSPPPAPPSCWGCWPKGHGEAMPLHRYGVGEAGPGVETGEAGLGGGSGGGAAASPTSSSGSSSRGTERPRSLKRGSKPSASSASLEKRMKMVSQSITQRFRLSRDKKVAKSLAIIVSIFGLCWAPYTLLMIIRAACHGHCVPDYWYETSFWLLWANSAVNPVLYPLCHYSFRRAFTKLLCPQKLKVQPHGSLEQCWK
Sequence of Histamine H3 receptor (Mus musculus) (P58406 whole entry): as above
Sequence of Histamine H3 receptor (Rattus norvegicus, UniProt Q9QYN8) (Q9QYN8 whole entry): as the sequence (P58406 whole entry) above, with A15T, T286A, G290A, H387R, V389I counted along it
Sequence of Histamine H1 receptor (P35367 whole entry): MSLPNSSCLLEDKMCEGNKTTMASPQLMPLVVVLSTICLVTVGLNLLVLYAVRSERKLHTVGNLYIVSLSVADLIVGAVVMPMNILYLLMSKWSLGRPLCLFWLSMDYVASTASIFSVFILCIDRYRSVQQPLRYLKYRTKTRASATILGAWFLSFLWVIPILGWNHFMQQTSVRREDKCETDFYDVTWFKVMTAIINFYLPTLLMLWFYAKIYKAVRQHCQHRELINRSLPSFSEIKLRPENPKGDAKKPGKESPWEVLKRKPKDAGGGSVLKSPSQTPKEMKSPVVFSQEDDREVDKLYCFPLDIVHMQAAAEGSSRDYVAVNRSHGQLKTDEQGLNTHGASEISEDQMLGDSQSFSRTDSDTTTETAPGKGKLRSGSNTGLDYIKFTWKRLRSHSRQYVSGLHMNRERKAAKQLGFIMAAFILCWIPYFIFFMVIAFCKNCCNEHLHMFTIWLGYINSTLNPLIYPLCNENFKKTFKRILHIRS
Sequence of Histamine H4 receptor (Q9H3N8 whole entry): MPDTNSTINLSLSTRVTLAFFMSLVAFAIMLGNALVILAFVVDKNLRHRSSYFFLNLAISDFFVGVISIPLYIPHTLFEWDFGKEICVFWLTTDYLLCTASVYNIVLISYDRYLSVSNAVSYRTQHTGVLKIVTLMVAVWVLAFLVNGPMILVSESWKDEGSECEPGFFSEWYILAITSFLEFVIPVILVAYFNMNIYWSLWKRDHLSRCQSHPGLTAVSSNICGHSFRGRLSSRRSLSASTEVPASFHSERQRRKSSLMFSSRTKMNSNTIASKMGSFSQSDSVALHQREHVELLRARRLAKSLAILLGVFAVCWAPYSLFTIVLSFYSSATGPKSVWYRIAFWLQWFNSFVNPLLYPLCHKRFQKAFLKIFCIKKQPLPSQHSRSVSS
Sequence of Histamine H2 receptor (P25021 whole entry): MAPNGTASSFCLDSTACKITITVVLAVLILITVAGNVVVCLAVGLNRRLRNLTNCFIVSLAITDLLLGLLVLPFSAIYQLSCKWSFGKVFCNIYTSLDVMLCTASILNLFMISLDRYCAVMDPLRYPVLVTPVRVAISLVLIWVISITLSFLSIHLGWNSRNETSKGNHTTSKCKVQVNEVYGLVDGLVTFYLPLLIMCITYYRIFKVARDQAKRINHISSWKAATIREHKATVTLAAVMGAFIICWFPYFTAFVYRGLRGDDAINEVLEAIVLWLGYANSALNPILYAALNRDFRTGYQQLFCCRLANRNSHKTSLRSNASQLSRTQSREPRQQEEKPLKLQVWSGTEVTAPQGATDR

## CNCCc1c[nH]cn1
Histamine H3 receptor [1]
  Ki: 19 nM

## N=C(N)SCCc1cnc[nH]1 [IMETIT]
Histamine H3 receptor [1]
  Ki: 2 nM

## NC(=NCc1ccc(Cl)cc1)SCCCc1cnc[nH]1 [CLOBENPROPIT]
Histamine H3 receptor [2]
  EC50: 1.7 nM

## Cn1c(-c2ccc(OCCCN3CCCC3)cc2)nc2ccccc2c1=O
[3]
  inhibition: 24%
[4]
  concentration at 2 h: 1360 nM
Brain [5]
  Activity: Active
[6]
  concentration at 2 h: 134 nM
Histamine H3 receptor [7]
  Ki: 12 nM
Histamine H3 receptor [1]
  Ki: 2.4 nM
Histamine H1 receptor
  IC50: > 10 µM
Brain [8]
  Drug uptake: 2.22 nmol/g
Histamine H4 receptor
  IC50: > 10 µM
Histamine H2 receptor
  IC50: > 10 µM
Histamine H3 receptor [2]
  EC50: 9.6 nM

## NCCc1c[nH]cn1 [HISTAMINE]
Histamine H3 receptor [1]
  Ki: 68 nM

## [3H]C([3H])([3H])n1c(-c2ccc(OCCCN3CCCC3)cc2)nc2ccccc2c1=O
[9]
  logD: 1.2
Histamine H3 receptor [10]
  Kd: 3.1 nM
Histamine H3 receptor [11]
  Kd: 2.6 nM

## S=C(NC1CCCCC1)N1CCC(c2cnc[nH]2)CC1 [THIOPERAMIDE]
[3]
  inhibition: 27%
Histamine H3 receptor [1]
  Ki: 4.8 nM
Histamine H3 receptor [2]
  EC50: 11 nM

## N=C(NCc1ccc(Cl)cc1)SCCCc1c[nH]cn1
[3]
  inhibition: 14%
